Assay results from patent US10668283B2, “Brain stimulation tool configuration” (Elminda Ltd., priority 2014, dated 2020).

Columns and labels:
Format in all cases: in vivo, human
healthy volunteers = assay: Scopolamine induced cognitive impairment model: ΔBNA scores in Auditory Oddball Task against SEM of the normative database; conditions: scopolamine 0.4 mg, Novel stimulus, connectivity score; only 2 patients receiving placebo
Source text: The task chosen for this study was the Auditory Oddball Task, but other tasks are not excluded from the scope of the present invention. FIG. 21 is a schematic representation of an Auditory Oddball Task used in this study. The task included 600 repetitive 1000 ms auditory stimulations of which 80% were 2000 Hz stimuli (Frequent—blue circles), 10% were 1000 Hz stimuli requiring a motor response (Target—red circles) and 10% were rare non-targets composed of various sounds (Novel—yellow star). The stimuli were separated by 1500 ms intervals. The sound was delivered through a headset at a sound pressure level of 70 dB.
A pharmacological model study included 13 healthy volunteers of both genders, Aged 18-45. The volunteers were subjected to 3 Consecutive BNA sessions were, 1 week apart. A first session was used as a baseline, one of the two other sessions included administration of scopolamine (0.4 mg), and the other of the two other sessions included administration of placebo. The second and third sessions were at random order, double blind. ΔBNA Score values (Baseline—Placebo and Baseline—Drug) were evaluated against SEM values.
Shown are Plots of the ΔBNA (Baseline—treatment) connectivity score values for the Novel response. Each symbol is a single subject, tested once following Drug and once following Placebo. […]

groups of subjects = assay: Group BNA patterns from EEG data recorded during a working memory test (cue/probe face matching); conditions: memorization and retrieval, versus placebo
Source text: FIGS. 10A-H show group BNA patterns constructed from EEG data recorded from two groups of subjects during a working memory test. The black dots in FIGS. 10A-H show the locations of the EEG electrodes, and the color codes in these BNA patterns is the same as defined above. During the test, each subject of the group was asked to memorize an image of a human face (referred to as the “cue”). Two seconds later, the subject was again presented with an image of a human face (referred to as the “probe”) and was asked to determine whether the probe matches the cue.
The BNA patterns of the first group are shown in FIGS. 10A-D. FIGS. 10A and 10B are group BNA patterns constructed following treatment with a placebo (referred to below as placebo A), and FIGS. 10C and 10D are group BNA patterns constructed following treatment with a Scopolamine. The BNA patterns of the second group are shown in FIGS. 10E-H, where FIGS. 10E and 10F are group BNA patterns constructed following treatment with a placebo (referred to below as placebo B), and FIGS. 10G and 10H are BNA patterns constructed following treatment with a Ketamine.
The BNA pattern of FIGS. 10A, 10C, 10E and 10G were constructed from the data acquired during the time at which the cue was presented and are recognized by the present inventor as containing information pertaining to the memorization process in the brain (also known in the literature as “encoding”). The BNA patterns of FIGS. 10B, 10D, 10F and 10H were constructed from the data acquired during the time at which the probe was presented, and are recognized by the present inventor as containing information pertaining to the retrieval process in the brain. It is noted that the BNA patterns of FIGS. 10A-H describe differentiating activity networks. Thus, for example, the BNA pattern of FIG. 10A describes the brain activity during cue that most differentiated between placebo A and Scopolamine, and the BNA pattern of […] describes the brain activity during cue that most differentiated between placebo B and Ketamine.

[1] = tested on: healthy volunteer subjects; assay: BNA pattern similarity from EEG data of healthy volunteers during an attention-related oddball task after scopolamine; clinical behavioral endpoint; conditions: for BNA pattern similarity to baseline BNA pattern of healthy subjects following placebo: following scopolamine
Source text: FIGS. 8A-D show associated subject-specific BNA patterns constructed from EEG data recorded from two healthy volunteer subjects. The black dots in FIGS. 8A-D show the locations of the EEG electrodes, and the color codes in these BNA patterns are the same as defined above. The subject-specific BNA patterns shown in FIGS. 8A-D describe the association of the subjects to a group of healthy subjects following treatment with a placebo drug and while performing an attention task related oddball task.
FIGS. 8A and 8C are subject-specific BNA patterns constructed from EEG data collected from a first subject (FIG. 8A) and a second subject (FIG. 8C) following treatment with a placebo, and FIGS. 8B and 8D are subject-specific BNA patterns constructed from EEG data collected from the first subject (FIG. 8B) and the second subject (FIG. 8D) following treatment with a scopolamine drug. Scopolamine is an anticholinergic drug with inhibitory effect on M2-cholinergic receptors of excited type. It has an inhibitory effect on the cerebral cortex, typically inducing slight-anesthetic effect.
A BNA pattern similarity was calculated for each of the subject-specific BNA patterns shown in FIGS. 8A-D. The calculated similarities are 0.937, 0.079, 1.0 and 0.94, respectively. It is recognized by the present inventors that these similarity values indicate that the responsivity to scopolamine is high for the first subject (FIGS. 8A and 8B) and low for the second subject (FIGS. 8C and 8D).

ADHD subject = assay: BNA pattern similarity from EEG data of ADHD subjects before and after MPH treatment
Source text: The BNA patterns shown in FIGS. 6A-D are associated subject-specific BNA patterns constructed from EEG data recorded from a particular ADHD subject. The black dots in FIGS. 6A-D show the locations of the EEG electrodes. The color codes in these BNA patterns are the same as defined above. The subject-specific BNA patterns shown in FIGS. 6A-B describe the association of the ADHD subject to a group of untreated ADHD subjects, and the BNA patterns shown in FIGS. 6C-D describe the association of the ADHD subject to a group of ADHD subjects all treated with methylphenidate (MPH). The subject-specific BNA patterns shown in FIGS. 6A and 6C are based on EEG data recorded from the ADHD subject before any treatment, and subject-specific BNA patterns shown in FIGS. 6B and 6D are based on EEG data recorded from the ADHD subject following a treatment with MPH.
The baseline annotated BNA pattern constructed from the group of untreated ADHD subjects, and the baseline annotated BNA pattern constructed from the same group of subjects, but following treatment with MPH are shown in FIGS. 6E and 6F, respectively.
A BNA pattern similarity was calculated for each of the subject-specific BNA patterns shown in FIGS. 6A-D. The calculated similarity corresponding to the BNA pattern of FIG. 6A is 0.73, the calculated similarity corresponding to the BNA pattern of FIG. 6B is 0.19, the calculated similarity corresponding to the BNA pattern of FIG. 6C is 0.56, and the calculated similarity corresponding to the BNA pattern of FIG. 6D is 0.6.
The BNA patterns shown in FIGS. 7A-D were constructed from EEG data recorded from a different ADHD subject, which was also treated with MPH according to the same protocol as described above with respect to the responder subject of FIGS. 6A-D. The black dots in FIGS. 7A-D show the locations of the EEG electrodes, and the color codes in these BNA patterns is the same as defined above. Thus, the subject-specific BNA patterns shown in FIGS. 7A-B describe the association of the ADHD subject to a group of untreated ADHD subjects, and the BNA patterns shown in FIGS. 7C-D describe the association of the ADHD subject to a group of ADHD subjects all treated with methylphenidate (MPH). The subject-specific BNA patterns shown in FIGS. 7A and 7C are based on EEG data recorded from the ADHD subject before any treatment, and subject-specific BNA patterns shown in FIGS. 7B and 7D are based on EEG data recorded from the ADHD subject following a treatment with MPH.

| SMILES | patients with post-treatment BNA scores more than 2 SEM lower than the baseline score (healthy volunteers) | effect on central and frontal activation in group BNA pattern (groups of subjects) | effect on fronto-parietal part / connectivity of group BNA pattern (groups of subjects) | BNA pattern similarity to baseline BNA pattern of healthy subjects following placebo ([1]; first subject (FIG. 8B), 0.937 following placebo) | responsivity to scopolamine as indicated by similarity values ([1]; first subject (FIGS. 8A and 8B)) | decrease in behavioral endpoint (clinical observations) ([1]; first subject, following treatment with scopolamine) [%] | BNA pattern similarity to baseline BNA pattern of healthy subjects following placebo ([1]; second subject (FIG. 8D), 1.0 following placebo) | responsivity to scopolamine as indicated by similarity values ([1]; second subject (FIGS. 8C and 8D)) | change in behavioral endpoint (clinical observations) ([1]; second subject, following treatment with scopolamine) | effect on right lateralization in group BNA pattern (groups of subjects) | BNA pattern similarity to the group of untreated ADHD subjects (ADHD subject; different ADHD subject (FIG. 7B), following treatment with MPH, 0 before treatment) | BNA pattern similarity to the group of ADHD subjects treated with MPH (ADHD subject; different ADHD subject (FIG. 7D), following treatment with MPH, 0.06 before treatment) | responsiveness of the subject to the treatment as indicated by similarity values (ADHD subject; different ADHD subject (FIGS. 7A-D)) | BNA pattern similarity to the baseline BNA pattern for untreated ADHD group (ADHD subject; first ADHD subject (FIG. 6B), following single dose treatment with MPH, 0.73 before treatment) | BNA pattern similarity to the baseline BNA pattern for the treated ADHD group (ADHD subject; first ADHD subject (FIG. 6D), following single dose treatment with MPH, 0.56 before treatment) | responsiveness of the subject to the treatment as indicated by similarity values (ADHD subject; first ADHD subject (FIGS. 6A-D)) |
| --- | --- | --- | --- | --- | --- | --- | --- | --- | --- | --- | --- | --- | --- | --- | --- | --- |
| CN1[C@@H]2C[C@@H](OC(=O)[C@H](CO)c3ccccc3)C[C@H]1[C@@H]1O[C@@H]12 [scopolamine] | Eight out of 13 | extensive compensatory central and frontal activation | low connectivity between frontal and parietal regions | 0.079 | high | 70 | 0.94 | low | no change in behavioral endpoint |  |  |  |  |  |  |  |
| CNC1(c2ccccc2Cl)CCCCC1=O (stereo not drawn) [ketamine] |  | increased central and frontal activation | No significant change in the fronto-parietal part of the BNA pattern |  |  |  |  |  |  | decreased right lateralization |  |  |  |  |  |  |
| COC(=O)C(c1ccccc1)C1CCCCN1 (stereo not drawn) [MPH, methylphenidate] |  |  |  |  |  |  |  |  |  |  | 0 | 0 | not responsive to the treatment | 0.19 | 0.6 | responsive to the treatment |
